These results are taken from US20050070594A1, “Use of angiotensin II receptor antagonists” (Boehringer Ingelheim International GmbH, priority 2003, published 2005).

One assay deals with T1, PPARgamma (Homo sapiens, UniProt P37231).
T1 construct: expressed in transfected cells; host or cells: PC12W cells (AT1-receptor-deficient), transient transfection
T1 sequence (P37231 1-505): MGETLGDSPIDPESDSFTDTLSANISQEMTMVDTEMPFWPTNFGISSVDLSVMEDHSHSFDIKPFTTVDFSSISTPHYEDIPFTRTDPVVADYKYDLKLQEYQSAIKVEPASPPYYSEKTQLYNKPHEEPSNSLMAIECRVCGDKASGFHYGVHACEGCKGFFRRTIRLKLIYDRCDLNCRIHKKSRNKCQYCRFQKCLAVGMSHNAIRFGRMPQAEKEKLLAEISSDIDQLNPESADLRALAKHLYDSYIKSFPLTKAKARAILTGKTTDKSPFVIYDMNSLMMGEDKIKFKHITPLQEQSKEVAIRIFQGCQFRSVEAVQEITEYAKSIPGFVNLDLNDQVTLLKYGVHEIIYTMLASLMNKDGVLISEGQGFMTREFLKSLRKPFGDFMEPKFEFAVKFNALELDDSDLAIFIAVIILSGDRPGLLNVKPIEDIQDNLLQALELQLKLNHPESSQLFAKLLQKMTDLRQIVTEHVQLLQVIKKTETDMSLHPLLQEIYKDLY
T1 sequence (P19793 1-462 partner): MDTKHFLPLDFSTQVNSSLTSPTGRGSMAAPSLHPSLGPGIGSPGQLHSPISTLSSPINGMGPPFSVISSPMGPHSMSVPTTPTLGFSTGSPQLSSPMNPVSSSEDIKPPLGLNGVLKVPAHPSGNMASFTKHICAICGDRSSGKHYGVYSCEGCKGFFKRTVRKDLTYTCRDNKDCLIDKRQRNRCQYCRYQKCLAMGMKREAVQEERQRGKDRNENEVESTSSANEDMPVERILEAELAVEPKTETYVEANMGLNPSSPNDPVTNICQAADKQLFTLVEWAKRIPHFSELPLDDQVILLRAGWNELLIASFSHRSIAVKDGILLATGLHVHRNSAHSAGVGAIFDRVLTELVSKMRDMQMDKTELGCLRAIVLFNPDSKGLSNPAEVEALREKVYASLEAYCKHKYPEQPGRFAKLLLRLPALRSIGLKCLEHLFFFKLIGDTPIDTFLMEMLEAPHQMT
Kind of assay: Transcription reporter assay (PPRE-luciferase) in AT1-receptor-deficient PC12W cells. It is filed as cell-based. To be noted: 10 μmol/L. Here is the method:
3T3-L1 adipocytes (day 4) or PC12W cells are transfected with Lipofectamine 2000 (Invitrogen) in the presence of 1 μg (for 3T3-L1 cells) or 50 ng (for PC12W cells) of a reporter construct, PPARgamma2 and RXRalpha expression vectors and 10 ng of a Renilla Luciferase Reporter control vector. The reporter construct is a fusion of 3xAcyl-CoA oxidase PPAR Response Element (PPRE) with Tk-luciferase. […] The Luciferase Reporter control vector is the plasmid pRL-CMV (Promega).
PC12W cells are AT1-receptor-deficient.

Assay [1] relates to Adipose Protein 2 (aP2) expression. Description: Stimulation of aP2 expression in 3T3-L1 cells (real time PCR). It is filed as cell-based, mouse. The following applies: 10 μmol/L. An excerpt: 3T3-L1 mouse preadipocytes are cultivated in DMEM (Dulbecco's modified eagle medium) with 10% foetal calf serum (FBS). PC12W cells are cultivated in DMEM with 5% FBS and 10% equine serum. In both cases the media contain 1% penicillin/streptomycin.
The differentiation of adipocytes is induced 2-3 days after cell confluence by adding a differentiating solution. This contains • 1 μmol/L of dexamethasone, • 0.5 mmol/L of 3-isobutyl-1-methylxanthine, • 1.67 μmol/L of insulin, and • 10% FBS.
Then the cells are stimulated for another 48 hours before finally being analysed (day 4).
RNA isolation, reverse transcription and quantification of gene expression are carried out using an ABI 7000 sequence detection system-for real time PCR (described in Janke et al, Diabetes 51:1699-707, 2002). The endogenous control used for the real time PCR consists of the household genes 18S rRNA and hypoxanthine guanine phosphoribosyl transferase (hprt).

Assay [2] deals with T2, human PPARgamma-ligand binding domain (LBD) (Homo sapiens, UniProt P37231).
T2 construct: codes for the amino acids 205-505 of the human PPARgamma2 transcription factor; made in house; host or cells: E. coli BL21(DE3), vector pGEX-4T-1
T2 sequence (P37231 205-505): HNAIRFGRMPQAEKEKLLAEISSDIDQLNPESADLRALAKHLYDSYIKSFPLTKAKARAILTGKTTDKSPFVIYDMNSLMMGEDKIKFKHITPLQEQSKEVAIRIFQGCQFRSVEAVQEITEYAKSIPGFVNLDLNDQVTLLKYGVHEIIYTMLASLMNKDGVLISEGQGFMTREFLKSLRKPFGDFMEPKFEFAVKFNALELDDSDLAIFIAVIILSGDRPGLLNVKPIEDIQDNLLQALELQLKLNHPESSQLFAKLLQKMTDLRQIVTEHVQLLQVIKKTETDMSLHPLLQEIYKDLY
Kind of assay: AlphaScreen: recruiting of biotinylated LXXLL peptide of cofactor CBP to GST-PPARgamma-LBD. It is filed as biochemical. Here is the method: Protein containing the human PPARgamma-ligand binding domain (LBD) is prepared as a GST fusion protein in E.coli and purified by affinity chromatography. […] The fusion protein is expressed in the E.coli strain BL21(DE3) recommended for pGEX vectors after induction with 0.2 mM IPTG for 4 hours at 25° C. The bacteria are pelleted after the induction and frozen in batches in PBS, pH 7.4. After opening up in a French Press, the dissolved GST-PPARgamma-LBD-fusion protein is purified using a GSTrap column (Pharmacia). Elution is carried out by the addition of 20 mM reduced glutathione.
The GST-PPARgamma-LBD-protein fractions are desalinated using a HiTrap desalting column (Pharmacia) and the protein concentration is determined using a standard assay.
The assay buffer consists of 25 mM Hepes pH7.4, 100 mM NaCl,1 mM DTT, 0.1% Tween-20, 0.1% BSA. […] The final DMSO concentration in the assay is 1% (v/v). A 1% DMSO solution is used as the background control (NSB). The measurement is done using a Packard fusion measuring device.

SMILES strings stand for the structures.

With `CCCc1nc2c(C)cc(-c3nc4ccccc4n3C)cc2n1Cc1ccc(-c2ccccc2C(=O)O)cc1` [telmisartan], the “regulation of the PPARgamma activity” value on PPARgamma (PC12W cells in the absence of exogenous PPARgamma2/RXRalpha) is listed as “no regulation”. Moreover, the “induction of PPARgamma activity, factor” value on PPARgamma (PC12W cells overexpressing PPARgamma2/RXRalpha) stood at 1.9±0.4. In addition, the “stimulation of aP2 expression, factor” value in assay [1] was found to be 3.1±0.3. Also, the “AlphaScreen signal (MW)” value in assay [2] (1.00E−05 M test substance) is 847; in assay [2] (1.00E−06 M test substance), 677; in assay [2] (1.00E−07 M test substance) it was 606; in assay [2] (3.00E−06 M test substance), 720; in assay [2] (3.00E−07 M test substance), 644; in assay [2] (3.00E−08 M test substance), 642. In assay [2] (5.00E−05 M test substance), the “AlphaScreen signal (MW)” value turned out to be 1111. For the same compound, in assay [2] (concentrations of up to 50 μM), the “direct activation of the PPARgamma-LBD / recruiting of the LXXLL peptide” value is listed as “does not result in any direct activation”.
